Tests used:
Assay in all cases: relative viability (nuclei count vs DMSO), 5 days (fraction); higher = more cells survive
AT9283 = compound: O=C(Nc1c[nH]nc1-c1nc2ccc(CN3CCOCC3)cc2[nH]1)NC1CC1 [AT9283]
Summary of the method: (§1)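 Nuclei counted with MetaXpress define viability as the ratio of treated to vehicle wells, given as a median across plates. The lung cancer cell lines were in 1536-well plates, pinned with five √10-spaced library-drug doses and imaged at 4× after 5 days and Hoechst staining. Plates passed with control CV below 25% and at least one doubling.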

Erlotinib = compound: C#Cc1cccc(Nc2ncnc3cc(OCCOC)c(OCCOC)cc23)c1 [Erlotinib]
Summary of the method: as §1

Phenformin = compound: N=C(N)NC(=N)NCCc1ccccc1 [Phenformin] (anchor plate); settings: 250 µM
Summary of the method: as §1

| Cell Line | relative viability (AT9283; 0.003 µM) | relative viability (AT9283; 0.03 µM) | relative viability (AT9283; 0.09487 µM) | relative viability (AT9283; 0.3 µM) | relative viability (Erlotinib; 0.02 µM) | relative viability (Erlotinib; 0.2 µM) | relative viability (Erlotinib; 0.6325 µM) | relative viability (Erlotinib; 2 µM) | relative viability (Phenformin) |
| --- | --- | --- | --- | --- | --- | --- | --- | --- | --- |
| NCI-H1755 | 1.02 | 1.01 | 0.617 | 0.639 | 1 | 1.02 | 1.06 | 0.935 | 0.626 |
| NCI-H2126 | 0.963 | 0.991 | 0.829 | 0.407 | 0.961 | 0.82 | 0.773 | 0.636 | 0.535 |
| NCI-H520 | 0.76 | 0.551 | 0.372 | 0.223 | 1.04 | 0.899 | 1.1 | 1.03 | 0.671 |
| NCI-H1793 | 0.858 | 1.03 | 0.39 | 0.321 |  | 0.521 | 0.63 | 0.455 | 0.401 |
| A-427 | 0.929 | 0.453 | 0.264 | 0.242 | 1.03 | 0.957 | 1.08 | 1.01 | 0.323 |

Source: the supplement of paper PMC10307832
